Test results taken from patent publication EP4803513A1, “SUBSTITUTED QUINAZOLINE COMPOUND, PREPARATION METHOD THEREFOR, PHARMACEUTICAL COMBINATION THEREOF, AND USE THEREOF” (Hongyun Biotech Co., Ltd., priority 2023, dated 2025).
pIC50: −log10 of the molar value.

Experiments:
BRK-BaF3 cells = assay: Cell antiproliferative activity assay (CCK-8), BRK-BaF3; type: cell-based; settings: 72 h, CCK-8, 3 days incubation
Method in brief: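 Growth inhibition over 3 days, with compound serially diluted 3-fold from a 10 µM top concentration. Cells seeded at 100,000 cells/mL; WT-BaF3 medium carried 10% WEHI supernatant as the IL-3 source. Viability read by CCK-8 OD450 after 2-4 h; IC50 from blank-subtracted curve fit.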

WT-BaF3 cells = assay: Cell antiproliferative activity assay (CCK-8), WT-BaF3 (broad-spectrum cytotoxicity); type: cell-based; settings: 72 h; WT-BaF3 cells (IL-3 supplemented), CCK-8, 3 days incubation
Protocol: The activity of compounds against BRK kinase can be evaluated by their inhibition of the growth of the BRK kinase-stably transfected BaF3 cell line (BRK-BaF3) and wild-type BaF3 cells (WT-BaF3). […] The larger the ratio of the half-maximal growth inhibitory concentration (IC50) of a compound between WT-BaF3 and BRK-BaF3 cells, the better the selectivity of the compound.
BRK-BaF3, WT-BaF3, WEHI cell line, and breast cancer cell line T47D were cultured using RPMI 1640 Basal medium or DMEM (Dulbecco's Modified Eagle Medium) (Shanghai Peiyuan Biotechnology, L220KJ), supplemented with 10% FBS (Gibco, REF 10099-141C) and 1% P/S (Shanghai Peiyuan Biotechnology, S110JV), in an incubator (Thermo 3020) at 37°C with 5% CO2. Cell viability was above 95%. Cells were passaged at a 3:1 ratio every 3-4 days. For WT-BaF3 cells, WEHI cells were first cultured, and their culture supernatant was filtered through a 0.22 µm filter. This supernatant was added at 10% to the regular culture medium to supplement IL-3 required for WT-BaF3 cell proliferation, which served as the culture medium for WT-BaF3. For testing, cells were first collected and counted, then prepared into a cell suspension at 100,000 cells/mL and plated at 100 µL per well. Drug concentrations started from 10 µM and were serially diluted 3:1. After incubation for 3 days, 20 µL of CCK-8 detection reagent (Targetmol C005) was added to each well. After incubation for 2-4 hours, OD450 was measured using a microplate reader (Varioskan LUX, Thermo Scientific). After subtracting the blank background, the curve was fitted and the IC50 was calculated using XLfit software.

Row | SMILES | pIC50 (BRK-BaF3 cells) | pIC50 (WT-BaF3 cells)
1 | Cc1nc(P(C)(C)=O)ccc1Nc1ncc2cc(-c3nccnc3C)cc(C(C)C)c2n1 [II-1] | ≥ 7.70 | < 5.60
2 | COc1nc(P(C)(C)=O)ccc1Nc1ncc2cc(-c3nccnc3C)cc(C(C)C)c2n1 [II-2] | ≥ 7.70 | < 5.60
3 | Cc1nccnc1-c1cc(C(C)C)c2nc(Nc3ccc(P(C)(C)=O)nc3)ncc2c1 [II-3] | ≥ 7.70 | < 5.60
4 | Cc1cc(P(C)(C)=O)ncc1Nc1ncc2cc(-c3nccnc3C)cc(C(C)C)c2n1 [II-4] | 7.00 to 7.70 | < 5.60
5 | COc1cc(P(C)(C)=O)ncc1Nc1ncc2cc(-c3nccnc3C)cc(C(C)C)c2n1 [II-5] | ≥ 7.70 | < 5.60
6 | Cc1cc(Nc2ncc3cc(-c4nccnc4C)cc(C(C)C)c3n2)cnc1P(C)(C)=O [II-6] | ≥ 7.70 | < 5.60
7 | COc1cc(Nc2ncc3cc(-c4nccnc4C)cc(C(C)C)c3n2)cnc1P(C)(C)=O [II-7] | 7.00 to 7.70 | 5.60 to 6.30
8 | Cc1nccnc1-c1cc(C(C)C)c2nc(Nc3ccc(P(C)(C)=O)cn3)ncc2c1 [II-8] | 7.00 to 7.70 | < 5.60
9 | Cc1cc(Nc2ncc3cc(-c4nccnc4C)cc(C(C)C)c3n2)ncc1P(C)(C)=O [II-9] | 7.00 to 7.70 | < 5.60
10 | Cc1nc(Nc2ncc3cc(-c4nccnc4C)cc(C(C)C)c3n2)ccc1P(C)(C)=O [II-10] | 7.00 to 7.70 | < 5.60
11 | Cc1cc(P(C)(C)=O)ccc1Nc1ncc2cc(-c3nccnc3C)cc(C(C)C)c2n1 [II-13] | 7.00 to 7.70 | < 5.60
12 | COc1cc(P(C)(C)=O)ccc1Nc1ncc2cc(-c3nccnc3C)cc(C(C)C)c2n1 [II-14] | ≥ 7.70 | < 5.60
13 | CCc1cc(P(C)(C)=O)ccc1Nc1ncc2cc(-c3nccnc3C)cc(C(C)C)c2n1 [II-15] | ≥ 7.70 | < 5.60
14 | Cc1nccnc1-c1cc(C(C)C)c2nc(Nc3ccc(P(C)(C)=O)c(Cl)c3F)ncc2c1 [II-17] | ≥ 7.70 | 5.60 to 6.30
15 | Cc1cc(Nc2ncc3cc(-c4nccnc4C)cc(C(C)C)c3n2)c(F)cc1P(C)(C)=O [II-21] | ≥ 7.70 | 5.60 to 6.30
16 | Cc1nccnc1-c1cc(C2CC2)c2nc(Nc3ccc(P(C)(C)=O)cc3)ncc2c1 [II-30] | ≥ 7.70 | 5.60 to 6.30
17 | Cc1nccnc1-c1cc(C2CC2)c2nc(Nc3ccc(P(C)(C)=O)cc3F)ncc2c1 [II-31] | ≥ 7.70 | < 5.60
18 | COc1nc(P(C)(C)=O)ccc1Nc1ncc2cc(-c3nccnc3C)cc(C3CC3)c2n1 [II-32] | ≥ 7.70 | 5.60 to 6.30
19 | Cc1nccnc1-c1cc(C(F)(F)F)c2nc(Nc3ccc(P(C)(C)=O)cc3)ncc2c1 [II-34] | ≥ 7.70 | < 5.60
20 | Cc1nccnc1-c1cc(C(F)(F)F)c2nc(Nc3ccc(P(C)(C)=O)cc3F)ncc2c1 [II-35] | 7.00 to 7.70 | < 5.60
21 | Cc1ncnc(C)c1-c1cc(C(C)C)c2nc(Nc3ccc(P(C)(C)=O)nc3)ncc2c1 [II-42] | 7.00 to 7.70 | < 5.60
22 | Cc1cc(P(C)(C)=O)ncc1Nc1ncc2cc(-c3c(C)ncnc3C)cc(C(C)C)c2n1 [II-43] | 7.00 to 7.70 | < 5.60
23 | COc1cc(P(C)(C)=O)ncc1Nc1ncc2cc(-c3c(C)ncnc3C)cc(C(C)C)c2n1 [II-44] | 7.00 to 7.70 | < 5.60
24 | Cc1cc(Nc2ncc3cc(-c4c(C)ncnc4C)cc(C(C)C)c3n2)cnc1P(C)(C)=O [II-45] | ≥ 7.70 | < 5.60
25 | Cc1ncnc(C)c1-c1cc(C(C)C)c2nc(Nc3ccc(P(C)(C)=O)cc3)ncc2c1 [II-50] | 7.00 to 7.70 | < 5.60
26 | COc1cc(P(C)(C)=O)ccc1Nc1ncc2cc(-c3c(C)ncnc3C)cc(C(C)C)c2n1 [II-53] | 7.00 to 7.70 | < 5.60

Row | SMILES | pIC50 (BRK-BaF3 cells) | pIC50 (WT-BaF3 cells)
27 | COc1cc(Nc2ncc3cc(-c4c(C)ncnc4C)cc(C(C)C)c3n2)ccc1P(C)(C)=O [II-54] | ≥ 7.70 | < 5.60
28 | Cc1ncnc(C)c1-c1cc(C(C)C)c2nc(Nc3ccc(P(C)(C)=O)c(C)c3F)ncc2c1 [II-56] | ≥ 7.70 | < 5.60
29 | Cc1cc(Nc2ncc3cc(-c4c(C)ncnc4C)cc(C(C)C)c3n2)c(F)cc1P(C)(C)=O [II-59] | 7.00 to 7.70 | < 5.60
30 | Cc1nccnc1-c1cc(C)c2nc(Nc3ccc(P(C)(C)=O)cc3)ncc2c1 [II-68] | 7.00 to 7.70 | < 5.60
31 | COc1cc(Nc2ncc3cc(-c4nccnc4C)cc(C(C)C)c3n2)cc(OC)c1P(C)(C)=O [II-73] | ≥ 7.70 | 5.60 to 6.30
32 | Cc1nccnc1-c1cc(C2CC2)c2nc(Nc3ccc(P(C)(C)=O)c(O)c3)ncc2c1 [II-75] | ≥ 7.70 | < 5.60
33 | Cc1nccnc1-c1cc(C2CC2)c2nc(Nc3cc(O)c(P(C)(C)=O)cc3F)ncc2c1 [II-76] | ≥ 7.70 | < 5.60
34 | Cc1c[nH]c(=O)cc1-c1cc(C(C)C)c2nc(Nc3cnn(C4COC4)c3C)ncc2c1 [III-41] | ≥ 7.70 | < 5.60
35 | Cc1c[nH]c(=O)cc1-c1cc(C2CC2)c2nc(Nc3cnn(C4COC4)c3C)ncc2c1 [III-83] | ≥ 7.70 | < 5.60
36 | Cc1nn(C)cc1Nc1ncc2cc(-c3c(C#N)cnn3C)cc(C(C)C)c2n1 [III-86] | ≥ 7.70 | < 5.60
37 | Cc1nn(C)cc1Nc1ncc2cc(-c3c(C)ncnc3C)cc(C(C)C)c2n1 [III-93] | ≥ 7.70 | < 5.60
38 | COCCn1cc(Nc2ncc3cc(-c4c(C)ncnc4C)cc(C(C)C)c3n2)c(C)n1 [III-94] | ≥ 7.70 | < 5.60
39 | Cc1nn(C2COC2)cc1Nc1ncc2cc(-c3c(C)ncnc3C)cc(C(C)C)c2n1 [III-95] | 7.00 to 7.70 | 5.60 to 6.30
40 | Cc1nn(CC(N)=O)cc1Nc1ncc2cc(-c3cncnc3C)cc(C(C)C)c2n1 [III-96] | 7.00 to 7.70 | < 5.60
41 | Cc1nn(C2COC2)cc1Nc1ncc2cc(-c3c(C)ncnc3C)cc(C3CC3)c2n1 [III-98] | 7.00 to 7.70 | 5.60 to 6.30
42 | Cc1nn(C2COC2)cc1Nc1ncc2cc(-c3nccnc3C)cc(C(C)C)c2n1 [III-104] | ≥ 7.70 | < 5.60
43 | Cc1nn(C2CCN(C)CC2)cc1Nc1ncc2cc(-c3nccnc3C)cc(C(C)C)c2n1 [III-106] | ≥ 7.70 | 5.60 to 6.30
44 | Cc1nccnc1-c1cc(C(C)C)c2nc(Nc3cnn(C4CCN(C)CC4)c3C)ncc2c1 [III-107] | ≥ 7.70 | < 5.60
45 | Cc1nn(CCN)cc1Nc1ncc2cc(-c3nccnc3C)cc(C(C)C)c2n1 [III-108] | ≥ 7.70 | 6.30 to 7.00
46 | CCN(C)CCn1cc(Nc2ncc3cc(-c4nccnc4C)cc(C(C)C)c3n2)c(C)n1 [III-109] | ≥ 7.70 | < 5.60
47 | COCCN(C)CCn1cc(Nc2ncc3cc(-c4nccnc4C)cc(C(C)C)c3n2)c(C)n1 [III-110] | ≥ 7.70 | < 5.60
48 | Cc1nn(CC(N)=O)cc1Nc1ncc2cc(-c3nccnc3C)cc(C(C)C)c2n1 [III-111] | ≥ 7.70 | < 5.60
49 | Cc1nn(CCN=S(C)(C)=O)cc1Nc1ncc2cc(-c3nccnc3C)cc(C(C)C)c2n1 [III-112] | 7.00 to 7.70 | < 5.60
50 | Cc1nn(C2COC2)cc1Nc1ncc2cc(-c3nccnc3C)cc(C3CC3)c2n1 [III-113] | ≥ 7.70 | 5.60 to 6.30
51 | Cc1nn(CC(N)=O)cc1Nc1ncc2cc(-c3nccnc3C)cc(C3CC3)c2n1 [III-114] | ≥ 7.70 | 5.60 to 6.30
